Laboratory results from ChEMBL document CHEMBL1201862, “PubChem BioAssay data set” (2004).
One block for each molecule: values may come before it. The source made the active and inactive calls.

Legend:
[1] = viability loss in Mcl1-dependent HMC-1-8 cells, dose response, selectivity assay for A1 inhibitor project, cell-based, luminescence, dry powder (AID 504415); type: functional; details: Homo sapiens
[2] = system: CHO; assay: cytotoxicity in TLR9-MyD88 CHO cells, dose response, cytotoxicity control for TLR9-MyD88 binding inhibitor project, cell-based, luminescence (AID 588339); type: functional, hamster; details: Cricetulus griseus;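 also: CHO cells stably coexpressing TLR9 and MyD88 fusions from primary screen; compound exposure lasted 48 hours before viability readout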
[3] = target: Beta Lactamase (Pseudomonas aeruginosa, UniProt Q932Y6); assay: beta-lactamase reporter inhibitor potency, dose response, artefact control for TLR9-MyD88 binding inhibitor project, BLA reporter cells, FRET fluorescence (AID 588341); type: cell-based;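 also: cell based assay in CHO-K1 cells stably expressing beta-lactamase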
Sequence of Beta Lactamase (Q932Y6 whole entry): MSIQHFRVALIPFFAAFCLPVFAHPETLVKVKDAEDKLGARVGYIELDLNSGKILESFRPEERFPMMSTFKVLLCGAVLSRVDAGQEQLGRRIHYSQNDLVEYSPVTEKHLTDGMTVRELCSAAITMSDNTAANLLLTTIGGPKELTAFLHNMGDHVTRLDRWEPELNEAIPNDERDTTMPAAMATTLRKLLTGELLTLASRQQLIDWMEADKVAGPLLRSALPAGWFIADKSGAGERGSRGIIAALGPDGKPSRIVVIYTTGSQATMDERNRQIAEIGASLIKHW

[4] = Shn3 3'UTR reporter inhibitors, dose response, cell-based, Clone20 osteoblasts, firefly luciferase, cherry-picked (AID 624132); type: functional;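 also: firefly luciferase luminescence from reporter carrying the Shn3 3'UTR in osteoblasts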
[5] = HepG2 cell cytotoxicity, dose response, cytotoxicity control for Shn3 inhibitor project, CellTiter-Glo, cherry-picked (AID 624134); type: functional, cell-based
[6] = control 3'UTR Renilla luciferase suppression, dose response, counter-screen for Shn3 inhibitor project, cell-based, Clone20-Shn3RL, cherry-picked (AID 624133); type: functional
[7] = target: Serine/threonine-protein kinase pim-1 (Homo sapiens, UniProt P11309); type: functional
Sequence of Serine/threonine-protein kinase pim-1 (P11309 whole entry): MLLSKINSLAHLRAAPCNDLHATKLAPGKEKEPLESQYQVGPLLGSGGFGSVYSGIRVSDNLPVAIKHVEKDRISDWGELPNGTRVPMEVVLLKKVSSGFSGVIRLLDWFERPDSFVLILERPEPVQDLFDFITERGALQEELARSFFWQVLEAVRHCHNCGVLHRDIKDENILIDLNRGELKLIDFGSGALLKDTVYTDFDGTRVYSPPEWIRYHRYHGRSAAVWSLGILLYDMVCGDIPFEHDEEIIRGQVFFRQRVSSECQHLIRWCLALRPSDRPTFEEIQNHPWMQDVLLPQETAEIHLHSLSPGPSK

[8] = target: Cell division cycle 7-related protein kinase (Homo sapiens, UniProt O00311); type: functional;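 also: value obtained from a kinome-wide kinase panel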
Sequence of Cell division cycle 7-related protein kinase (O00311 whole entry): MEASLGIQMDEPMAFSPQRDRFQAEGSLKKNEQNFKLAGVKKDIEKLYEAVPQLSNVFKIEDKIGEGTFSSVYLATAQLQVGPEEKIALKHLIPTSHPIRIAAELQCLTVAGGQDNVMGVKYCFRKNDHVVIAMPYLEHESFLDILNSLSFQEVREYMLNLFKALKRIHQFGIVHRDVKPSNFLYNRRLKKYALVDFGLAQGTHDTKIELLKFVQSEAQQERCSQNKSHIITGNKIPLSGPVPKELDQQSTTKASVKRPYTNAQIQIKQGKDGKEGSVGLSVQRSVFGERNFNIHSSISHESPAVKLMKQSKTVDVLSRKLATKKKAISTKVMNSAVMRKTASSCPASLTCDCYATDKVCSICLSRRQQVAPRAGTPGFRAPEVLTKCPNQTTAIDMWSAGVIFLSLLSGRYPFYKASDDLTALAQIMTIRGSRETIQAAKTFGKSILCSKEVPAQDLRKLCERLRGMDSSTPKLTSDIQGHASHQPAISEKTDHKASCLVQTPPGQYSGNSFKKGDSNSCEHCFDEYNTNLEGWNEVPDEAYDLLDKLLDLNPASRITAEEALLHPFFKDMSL

[9] = target: Homeodomain-interacting protein kinase 2 (Homo sapiens, UniProt Q9H2X6); type: functional;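 also: measured within a kinome-wide kinase profiling panel, HIPK2 being one panel member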
Sequence of Homeodomain-interacting protein kinase 2 (Q9H2X6 whole entry): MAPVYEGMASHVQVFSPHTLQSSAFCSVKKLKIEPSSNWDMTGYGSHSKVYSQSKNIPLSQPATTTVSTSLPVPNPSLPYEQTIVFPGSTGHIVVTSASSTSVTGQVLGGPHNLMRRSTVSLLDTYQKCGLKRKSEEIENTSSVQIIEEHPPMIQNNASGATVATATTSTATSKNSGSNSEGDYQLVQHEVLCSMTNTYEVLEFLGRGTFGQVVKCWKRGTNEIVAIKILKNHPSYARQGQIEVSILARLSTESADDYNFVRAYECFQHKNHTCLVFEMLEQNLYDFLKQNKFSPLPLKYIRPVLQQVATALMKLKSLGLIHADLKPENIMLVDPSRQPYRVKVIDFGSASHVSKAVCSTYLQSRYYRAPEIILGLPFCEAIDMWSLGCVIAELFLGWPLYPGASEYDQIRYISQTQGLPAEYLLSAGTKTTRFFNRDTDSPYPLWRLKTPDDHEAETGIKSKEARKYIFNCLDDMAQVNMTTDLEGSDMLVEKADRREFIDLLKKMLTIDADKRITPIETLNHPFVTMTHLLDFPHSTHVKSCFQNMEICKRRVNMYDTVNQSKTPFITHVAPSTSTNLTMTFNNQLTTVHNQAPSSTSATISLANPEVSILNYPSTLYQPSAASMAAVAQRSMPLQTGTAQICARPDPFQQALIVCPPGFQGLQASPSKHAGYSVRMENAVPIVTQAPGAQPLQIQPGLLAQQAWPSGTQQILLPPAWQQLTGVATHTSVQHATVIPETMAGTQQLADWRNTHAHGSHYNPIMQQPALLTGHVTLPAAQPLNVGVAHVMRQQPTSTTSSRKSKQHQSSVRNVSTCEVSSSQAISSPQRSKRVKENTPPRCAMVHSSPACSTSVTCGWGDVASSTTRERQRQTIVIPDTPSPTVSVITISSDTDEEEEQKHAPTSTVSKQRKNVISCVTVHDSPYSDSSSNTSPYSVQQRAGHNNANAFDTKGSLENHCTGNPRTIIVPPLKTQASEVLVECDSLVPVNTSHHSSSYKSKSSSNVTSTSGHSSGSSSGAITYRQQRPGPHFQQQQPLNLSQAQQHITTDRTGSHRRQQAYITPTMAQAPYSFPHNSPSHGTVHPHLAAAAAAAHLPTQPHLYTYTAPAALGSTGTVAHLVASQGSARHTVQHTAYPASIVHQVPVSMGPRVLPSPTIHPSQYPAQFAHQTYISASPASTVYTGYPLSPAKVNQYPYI

[10] = target: Interleukin-1 receptor-associated kinase 4 (Homo sapiens, UniProt Q9NWZ3); type: functional
Sequence of Interleukin-1 receptor-associated kinase 4 (Q9NWZ3 whole entry): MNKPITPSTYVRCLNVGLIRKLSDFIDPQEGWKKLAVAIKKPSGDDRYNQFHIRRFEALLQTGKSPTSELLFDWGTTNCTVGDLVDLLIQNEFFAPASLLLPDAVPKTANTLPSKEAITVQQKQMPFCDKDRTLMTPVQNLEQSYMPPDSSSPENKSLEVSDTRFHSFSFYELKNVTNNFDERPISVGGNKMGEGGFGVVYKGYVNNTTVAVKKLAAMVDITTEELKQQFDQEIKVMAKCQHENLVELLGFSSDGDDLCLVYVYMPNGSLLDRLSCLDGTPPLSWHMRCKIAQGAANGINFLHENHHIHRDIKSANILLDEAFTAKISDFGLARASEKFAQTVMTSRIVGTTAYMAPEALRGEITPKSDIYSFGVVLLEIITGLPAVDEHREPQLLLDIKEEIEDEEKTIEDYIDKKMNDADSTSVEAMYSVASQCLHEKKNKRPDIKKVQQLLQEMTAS

[11] = target: cAMP-dependent protein kinase catalytic subunit alpha (Homo sapiens, UniProt P17612); type: functional
[12] = target: Mitogen-activated protein kinase kinase kinase kinase 4 (Homo sapiens, UniProt O95819); type: functional
Sequence of Mitogen-activated protein kinase kinase kinase kinase 4 (O95819 whole entry): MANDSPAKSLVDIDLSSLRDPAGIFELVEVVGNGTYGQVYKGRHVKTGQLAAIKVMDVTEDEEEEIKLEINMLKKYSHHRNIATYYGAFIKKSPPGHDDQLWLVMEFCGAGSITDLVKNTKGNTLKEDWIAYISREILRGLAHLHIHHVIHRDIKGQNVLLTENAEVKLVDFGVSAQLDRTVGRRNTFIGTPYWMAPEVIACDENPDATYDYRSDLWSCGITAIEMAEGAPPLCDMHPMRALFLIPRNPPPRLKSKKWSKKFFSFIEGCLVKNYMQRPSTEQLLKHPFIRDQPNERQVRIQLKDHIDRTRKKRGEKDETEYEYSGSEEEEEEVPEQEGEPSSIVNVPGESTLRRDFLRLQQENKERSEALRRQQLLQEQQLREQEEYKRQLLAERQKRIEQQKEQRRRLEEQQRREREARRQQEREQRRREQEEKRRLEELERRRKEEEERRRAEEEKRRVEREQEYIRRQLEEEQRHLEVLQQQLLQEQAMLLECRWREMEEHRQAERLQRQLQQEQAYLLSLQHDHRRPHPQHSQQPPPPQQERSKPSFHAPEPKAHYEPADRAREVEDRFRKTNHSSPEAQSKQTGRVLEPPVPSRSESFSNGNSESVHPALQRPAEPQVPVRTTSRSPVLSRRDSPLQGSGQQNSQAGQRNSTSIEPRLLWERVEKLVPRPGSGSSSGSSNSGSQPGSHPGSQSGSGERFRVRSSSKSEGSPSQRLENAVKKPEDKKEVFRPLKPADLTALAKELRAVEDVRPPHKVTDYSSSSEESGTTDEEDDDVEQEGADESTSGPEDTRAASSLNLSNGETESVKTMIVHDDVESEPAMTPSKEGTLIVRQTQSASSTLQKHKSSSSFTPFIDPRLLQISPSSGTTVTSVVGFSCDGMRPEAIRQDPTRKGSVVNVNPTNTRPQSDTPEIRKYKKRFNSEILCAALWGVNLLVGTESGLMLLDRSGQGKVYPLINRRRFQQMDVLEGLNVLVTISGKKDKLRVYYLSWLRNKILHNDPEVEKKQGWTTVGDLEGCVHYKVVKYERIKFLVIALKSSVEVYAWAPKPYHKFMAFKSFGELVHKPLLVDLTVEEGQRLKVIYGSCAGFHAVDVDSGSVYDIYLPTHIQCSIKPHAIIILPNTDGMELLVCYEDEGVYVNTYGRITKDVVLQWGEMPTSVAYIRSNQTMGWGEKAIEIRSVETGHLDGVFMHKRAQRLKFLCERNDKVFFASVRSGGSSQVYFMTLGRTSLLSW

[13] = system: CHO-K1; assay: (§1) Counterscreen for antagonists of the orexin 1 receptor (OX1R; HCRTR1): Homogeneous time resolved fluorescence (HTRF)-based cell-based dose response assay to identify antagonists of the parental CHO-K1 cell line. [Related pubchem assays (depositor defined):AID434989, AID435008, AID463079, AID485270, AID492963, AID492964, AID492965, AID493232, AID504699, AID504701]; type: functional; details: Cricetulus griseus
[14] = as §1, with “Fluorescence-based” for “Homogeneous time resolved fluorescence (HTRF)-based”, “cell-based high throughput” for “cell-based”, “CHO” for “CHO-K1”; type: functional
[15] = target: T1, Orexin/Hypocretin receptor type 1 (Homo sapiens, UniProt O43613); assay: Homogeneous Time Resolved Fluorescence (HTRF)-based cell-based high throughput dose response assay for antagonists of the orexin 1 receptor (OX1R; HCRTR1). [Related pubchem assays (depositor defined):AID434989, AID435008, AID463079, AID485270, AID492963, AID492964, AID492965, AID493232, AID504717, AID504718]; type: functional
T1 sequence (O43613 whole entry): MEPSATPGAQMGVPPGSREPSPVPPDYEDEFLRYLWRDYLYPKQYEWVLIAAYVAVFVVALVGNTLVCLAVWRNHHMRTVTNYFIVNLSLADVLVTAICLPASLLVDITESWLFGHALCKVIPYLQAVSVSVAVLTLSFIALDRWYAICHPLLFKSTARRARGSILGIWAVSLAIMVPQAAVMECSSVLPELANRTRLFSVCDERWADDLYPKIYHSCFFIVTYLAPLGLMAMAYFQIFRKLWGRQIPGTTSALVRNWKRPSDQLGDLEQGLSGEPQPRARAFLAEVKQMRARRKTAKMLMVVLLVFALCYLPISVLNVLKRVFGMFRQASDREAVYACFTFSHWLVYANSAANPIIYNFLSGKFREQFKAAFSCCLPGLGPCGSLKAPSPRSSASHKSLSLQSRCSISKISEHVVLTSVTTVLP

[16] = target: T1, Orexin/Hypocretin receptor type 1; assay: Fluorescence-based cell-based high throughput dose response assay for antagonists of the orexin 1 receptor (OX1R; HCRTR1). [Related pubchem assays (depositor defined):AID434989, AID435008, AID463079, AID485270, AID492963, AID492964, AID492965, AID493232, AID504717, AID504718]; type: functional
[17] = target: T2, Orexin receptor type 2 (Homo sapiens, UniProt O43614); assay: Counterscreen assay for antagonists of the orexin 1 receptor (OX1R; HCRTR1): Fluorescence-based cell-based dose response assay for antagonists of the orexin 2 receptor (OX2R; HCRTR2), run by assay provider.; type: functional
T2 sequence (O43614 whole entry): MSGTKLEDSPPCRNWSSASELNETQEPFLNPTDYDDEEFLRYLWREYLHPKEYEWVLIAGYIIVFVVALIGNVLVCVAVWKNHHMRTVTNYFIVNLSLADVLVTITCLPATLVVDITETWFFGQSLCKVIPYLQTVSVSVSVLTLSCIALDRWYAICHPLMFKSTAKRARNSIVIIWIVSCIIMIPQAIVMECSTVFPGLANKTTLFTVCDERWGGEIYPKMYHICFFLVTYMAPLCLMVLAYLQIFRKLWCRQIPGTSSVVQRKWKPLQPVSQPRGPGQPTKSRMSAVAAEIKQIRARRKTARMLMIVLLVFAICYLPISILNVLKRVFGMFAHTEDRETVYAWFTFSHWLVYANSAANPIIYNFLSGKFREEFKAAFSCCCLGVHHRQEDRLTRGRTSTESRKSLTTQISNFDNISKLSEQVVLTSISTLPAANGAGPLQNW

[18] = target: T2, Orexin receptor type 2; assay: Counterscreen assay for antagonists of the orexin 1 receptor (OX1R; HCRTR1): Homogeneous Time Resolved Fluorescence (HTRF)-based cell-based dose response assay for antagonists of the orexin 2 receptor (OX2R; HCRTR2), run by assay provider.; type: functional

SMILES: Cc1ccc(Sc2c([N+](=O)[O-])c(=O)oc3ccccc23)cc1
AC50 [1]: 37.1 µM (active)

SMILES: C=C1C(=O)c2sccc2C(c2ccc(OC)c(OC)c2)C1COC(C)=O (stereo not drawn)
IC50 [2]: 1.69 µM (active)
IC50 [3]: 21.4 µM (inactive)
AC50 [4]: 0.662 µM (active)
AC50 [5]: 6.99 µM (active)
AC50 [6]: 3.62 µM (active)

Ki [7]: 0.398 µM (active)
Ki [8]: 0.0501 µM (active)
Ki [9]: 0.0158 µM (active)
Ki [10]: 3.98 µM (active)
Ki [11]: > 7.94 µM (inactive)
Ki [12]: 0.1 µM (active)
SMILES: c1ccc(Cn2cc(-c3ccc4[nH]nc(-c5cn(Cc6ccccc6)nn5)c4c3)nn2)cc1

SMILES: O=C(O)CCn1c(SCCOc2ccccc2)nc2ccccc21
IC50 [13]: > 66.2 µM (inactive)
IC50 [14]: > 49.7 µM (inactive)
IC50 [15]: 0.687 µM (active)
IC50 [16]: 23 µM (inactive)
IC50 [17]: > 88.8 µM (inactive)
IC50 [18]: > 50 µM (inactive)
